Data as given in publication PMC7406636, “In vivo and in silico characterization of apocynin in reducing organ oxidative stress: A pharmacokinetic and pharmacodynamic study” (Pharmacology Research & Perspectives, 2020).

Experiments:
[1] = test system: O2·‐ production in tissue homogenates; test: O2·- production in tissue homogenates by lucigenin-chemiluminescence after iv injection (PD profile); type: in vivo, mouse; conditions: iv 5 mg/kg
Experimental: All studies were performed in accordance with the protocols approved by the Home Office under the Animals (Scientific Procedures) Act 1986, UK. For the PKPD study, male CD1 mice (Charles River Ltd) at 12 weeks of age with a body weight range between 25 and 30 g were used for the study. Mice were fasted 12 hours before bolus iv injection of apocynin at 5 mg/kg body weight (dosing volume 5 mL/kg) via a lateral tail vein. Control mice were injected with vehicle (solvent of apocynin) at each time points. Four mice/per time points were sacrificed at 0, 1, 2.5, 5, 15, 30, 60 minutes and then at 3, 6, 12, and 24 hours after iv injection of apocynin. Blood samples were collected and centrifuged at 2000 g, 4°C for 10 minutes for plasma collection. Urine samples were collected from bladders. Tissues were harvested for further experiments. ROS production was measured using tissue homogenates by three complementary techniques: lucigenin (5 µmol/L)‐chemiluminescence (Molecular Devices); DHE (2 µmol/L) fluorescence on brain tissue sections, and brain tissue lipid peroxidation by malondialdehyde (MDA) assay as described previously. ^5 The specificity of detection of O2·‐ was confirmed by adding tiron (10 mmol/L), a non‐enzymatic O2·‐ scavenger. The enzymatic sources of O2·‐ production were identified using inhibitors targeting nitric oxide synthase (L‐N^G‐Nitro arginine methyl ester, L‐NAME, 100 μmol/L), the mitochondrial complex‐1 enzymes (rotenone, 50 μmol/L), xanthine oxidase (oxypurinol, 250 μmol/L), flavo‐proteins (diphenyleneiodonium, DPI, 20 μmol/L), or superoxide dismutase (SOD) (200 U/mL). The DHE fluorescence was captured using a Nikon fluorescence microscope (Eclipse Ti2‐E). The fluorescence intensity was quantified from at least three random images per section with three sections/per sample.

[2] = Body weight in HFD-induced obesity and accelerated aging mouse model; type: in vivo; conditions: HFD 16 weeks, apocynin 5 mmol/L in drinking water, vs HFD without apocynin
Experimental: Apocynin was supplied in drinking water (5 mmol/L) for the treatment group. Body weights were measured weekly. Mice were sacrificed at 11 months of age and organs were harvested for further experiments. […] Male mice at 7 months of age were randomly assigned (n = 6/per group) to a HFD: 45% kcal fat, 20% kcal protein and 35% kcal carbohydrate (Special Diets Services), or a NCD: 9.3% kcal fat, 25.9% kcal protein, and 64.8% kcal carbohydrate (LabDiet Ltd) for 16 weeks. Apocynin was supplied in drinking water (5 mmol/L). Body weights were measured weekly. Mice (at 11 months) were fasted 8 hours before being sacrificed by an overdose of pentobarbital. The body weights were recorded and organs were harvested.

[3] = test system: O2·‐ production in tissue homogenates; test: O2·- production in organ homogenates by lucigenin-chemiluminescence, HFD mouse model; type: in vivo; conditions: HFD 16 weeks, apocynin 5 mmol/L in drinking water, vs HFD
Experimental: Apocynin was supplied in drinking water (5 mmol/L) for the treatment group. Body weights were measured weekly. Mice were sacrificed at 11 months of age and organs were harvested for further experiments. ROS production was measured using tissue homogenates by three complementary techniques: lucigenin (5 µmol/L)‐chemiluminescence (Molecular Devices); DHE (2 µmol/L) fluorescence on brain tissue sections, and brain tissue lipid peroxidation by malondialdehyde (MDA) assay as described previously. ^5 The specificity of detection of O2·‐ was confirmed by adding tiron (10 mmol/L), a non‐enzymatic O2·‐ scavenger. The enzymatic sources of O2·‐ production were identified using inhibitors targeting nitric oxide synthase (L‐N^G‐Nitro arginine methyl ester, L‐NAME, 100 μmol/L), the mitochondrial complex‐1 enzymes (rotenone, 50 μmol/L), xanthine oxidase (oxypurinol, 250 μmol/L), flavo‐proteins (diphenyleneiodonium, DPI, 20 μmol/L), or superoxide dismutase (SOD) (200 U/mL). The DHE fluorescence was captured using a Nikon fluorescence microscope (Eclipse Ti2‐E). The fluorescence intensity was quantified from at least three random images per section with three sections/per sample. […] Body weights were measured weekly. […] The body weights were recorded and organs were harvested.

## COc1cc(C(C)=O)ccc1O [Apocynin, 4‐hydroxy‐3‐methoxyacetophenone]
[1]; Mus musculus, 1 min, brain homogenates, starting at 1 minute
  inhibition at 5 mg/kg: 60.4 ± 25.4%
[1]; brain homogenates
  duration of inhibition of brain O2·- production: up to 60 minutes
  start of inhibition of brain O2·- production: 1 min
  time at which inhibition of brain O2·- production became significant: 2.5 min
  time at which inhibition of brain O2·- production disappeared: 3 h
[1]; heart homogenates
  duration of inhibition of heart O2·- production: ~ 60 minutes
  start of inhibition of heart O2·- production: 1 min
  time at which inhibition of heart O2·- production became significant: 2.5 min
  time at which inhibition of heart O2·- production disappeared: 3 h
[1]; liver homogenates
  duration of inhibition of liver O2·- production: ~ 60 minutes
  time at which inhibition of liver O2·- production disappeared: 3 h
[1]; liver homogenates, vs time 0 control
  onset of inhibition of liver O2·- production: ≤ 1 min
[2]
  effect on HFD-induced increase in body weight: significantly reduced
[3]
  effect on HFD-induced ROS production / oxidative stress in brain, liver and heart: significant reductions
[3]; listed as apocynin
  effect on HFD-induced ROS production / oxidative stress in brain, liver and heart: reduced significantly
